Laboratory results: patent publication US4705845A, “Process for sulphation and phosphorylation of proteins and peptides” (Rockefeller University, priority 1986, dated 1987)

What was measured:
[1] = Hypoglycemic potency (United States Pharmacopeia method); format: in vivo; settings: relative to unmodified insulin; USP Vol. 18 method
Experimental: Hypoglycemic potency of the modified insulin was measured as described in "The United States Pharmacopeia", Mark Publishing Co., Vol. 18, pp. 883-884 (1964). Bioactivity was 62% as compared to unmodified insulin.

[2] = Aggregation tendency assessed by turbidity of the solution (absorbance difference at 400 nm); format: physicochemical; settings: 0 to 0.1 A non-aggregated, above 0.3 aggregated
Experimental: The tendency of modified insulin to aggregate was assessed by measuring the turbidity of the solution. This method is based on the work of Leach and Scheraga (S. J. Leach and H. A. Scheraga (1964) J. Amer. Chem. Soc. 82, 4790-4792) who stated that absorbancy observed in insulin solutions between 350 and 600 nm is due to light scattering of aggregated particles. Briefly, 10 mg of sample was dissolved in 2 ml of isotonic phosphate buffered saline (PBS) and the solution was passed 50 times through a 3 cc plastic syringe (B-D Plastipak, Luer Lok Type) equipped with a 26G 3/8" hypodermic needle. After deaeration under vacuo for 60 min. 1 ml of this solution was diluted with 1 ml of PBS, and the turbidity was measured on a Hewlett Packard spectrophotometer type HP 8590, utilizing as a blank a non-aggregated sample diluted by 1 volume of 8M guanidine hydrochloride. Aggregation was measured by the difference in absorbance determined at 400 nm for the two samples. Non-aggregated samples gave absorbance values of 0 to 0.1 Absorbance Unit(A), Values above 0.3 were considered to be aggregated. Utilizing this assay the turbidity of this modified insulin dissolved in PBS was 0.08 A. In contrast unmodified porcine sodium insulin dissolved in distilled water has an absorbance of 0.51 A when treated according to the above procedure.

Example 1: porcine sodium insulin sulphated with sulfuric acid and N,N' dicyclohexyl carbodiimide in DMF; mixture of sulphated isomers
Bioactivity as compared to unmodified insulin (hypoglycemic potency) [1]: 62%
Turbidity (difference in absorbance at 400 nm) ([2]; dissolved in PBS, passed 50 times through a 26G needle): 0.08 A

Example 4: porcine sodium insulin phosphorylated with concentrated phosphoric acid and DCC in DMF
Bioactivity as compared to unmodified insulin (hypoglycemic potency) [1]: 85%

unmodified porcine sodium insulin: unmodified porcine sodium insulin, starting material and comparator [reference compound]
Turbidity (difference in absorbance at 400 nm) ([2]; dissolved in distilled water, treated according to the same procedure): 0.51 A
